Source: ChEMBL document CHEMBL1255320, “Anti-BK virus activity of nucleoside analogs” (Antimicrob Agents Chemother, 2008)

Experiments:
[1] = Cytotoxicity against human WI38 cells by neutral red assay; format: cell-based, WI-38
[2] = tested on: BK polyomavirus; assay: Antimicrobial activity against BK polyomavirus ATCC VR837 infected in human WI38 cells assessed as reduction in viral titer after 7 days by PCR analysis; format: functional, organism-based; settings: Betapolyomavirus hominis, ATCC VR837, WI-38, 168 h
[3] = Selectivity index, ratio of CC50 for human WI38 cells to EC50 for BK polyomavirus ATCC VR837; format: toxicity, cell-based, WI-38; settings: read-out: Selectivity Index

## Nc1ncnc2c1ncn2CCOCP(=O)(O)O [ADEFOVIR]
[1]
  CC50: 125 µM
[2]
  EC50: 95.8 µM
[3]
  selectivity ratio: 1.3

## Nc1nc(=O)c2ncn(COCCOP3(=O)OCc4ccccc4O3)c2[nH]1 (stereo unspecified)
[1]
  CC50: 100 µM
[2]
  EC50: > 100 µM
[3]
  selectivity ratio: 1

## Cc1cn([C@H]2C[C@H](N=[N+]=[N-])[C@@H](CO)O2)c(=O)[nH]c1=O [ZIDOVUDINE]
[1]
  CC50: > 100 µM
[2]
  EC50: > 100 µM
[3]
  selectivity ratio: 1

## Nc1ncnc2c1ncn2/C=C1/CC1(CO)CO
[1]
  CC50: 312 µM
[2]
  EC50: 40.8 µM
[3]
  selectivity ratio: 11.9

## CC(C)OC(=O)OCOP(=O)(CO[C@H](C)Cn1cnc2c(N)ncnc21)OCOC(=O)OC(C)C [TENOFOVIR DISOPROXIL]
[1]
  CC50: > 50 µM
[2]
  EC50: > 50 µM
[3]
  selectivity ratio: 1

## CCCCCCCC/C=C\CCCCCCCC(=O)Nc1ncnc2c1ncn2CCOCP(=O)(O)O
[1]
  CC50: 165 µM
[2]
  EC50: 1 µM
[3]
  selectivity ratio: 58.9

## CC(C)(C)C(=O)OCOP(=O)(COCCn1cnc2c(N)ncnc21)OCOC(=O)C(C)(C)C [ADEFOVIR DIPIVOXIL]
[1]
  CC50: 3.1 µM
[2]
  EC50: 0.7 µM
[3]
  selectivity ratio: 5.7

## O=c1[nH]cnc2c1ncn2[C@H]1CC[C@@H](CO)O1 [DIDANOSINE]
[1]
  CC50: > 100 µM
[2]
  EC50: > 100 µM
[3]
  selectivity ratio: 1

## Nc1nc2c(ncn2/C=C2/CC2(CO)CO)c(=O)[nH]1 [FILOCICLOVIR]
[1]
  CC50: > 100 µM
[2]
  EC50: > 100 µM
[3]
  selectivity ratio: 1

## Nc1ccn([C@@H]2CS[C@H](CO)O2)c(=O)n1 [LAMIVUDINE]
[1]
  CC50: > 100 µM
[2]
  EC50: > 100 µM
[3]
  selectivity ratio: 1

## Nc1nc(O)c2ncn(/C=C3/CC3CO)c2n1 (stereo unspecified) [SYNGUANOL]
[1]
  CC50: > 100 µM
[2]
  EC50: > 100 µM
[3]
  selectivity ratio: 1

## CCCCCCCC/C=C\CCCCCCCCOC(=O)Nc1ncnc2c1ncn2CCOCP(=O)(O)O
[1]
  CC50: 529 µM
[2]
  EC50: 2.3 µM
[3]
  selectivity ratio: 233

## CC(=O)OCC(CCn1cnc2cnc(N)nc21)COC(C)=O [FAMCICLOVIR]
[1]
  CC50: > 0.78 µM
[2]
  EC50: > 0.78 µM
[3]
  selectivity ratio: 1

## CCCCCCCCCCCCCCCCCCOCCOP(=O)(O)CO[C@H](CO)Cn1cnc2c(N)ncnc21
[1]
  CC50: 0.5 µM
[2]
  EC50: 0.03 µM
[3]
  selectivity ratio: 11.7

## Cc1cccc2c1OP(=O)(OC[C@H]1O[C@@H](n3cc(/C=C/Br)c(=O)[nH]c3=O)CC1O)OC2 (single isomer, unassigned)
[1]
  CC50: 98.3 µM
[2]
  EC50: 41.9 µM
[3]
  selectivity ratio: 2.3

## Cc1cn([C@H]2C=C[C@@H](CO)O2)c(=O)[nH]c1=O [STAVUDINE]
[1]
  CC50: > 100 µM
[2]
  EC50: > 100 µM
[3]
  selectivity ratio: 1

## CCCCCCCCCCCCCCCCOCCCOP(=O)(O)CO[C@H](CO)Cn1cnc2c(N)ncnc21
[1]
  CC50: 0.8 µM
[2]
  EC50: 0.02 µM
[3]
  selectivity ratio: 58.5
